Experiments:
[1] = system: c-kit-positive progenitor cells (engraftment); test: bone marrow transplantation of stilbene-treated progenitor cells; type: in vivo, mice; details: cells incubated at 0.1 or 0.5 μM for 16 hours
Experimental: FIG. 16. (a) Effect of stilbenes in normal bone marrow progenitor cells. c-kit-positive bone marrow mononuclear cells were isolated for incubation with stilbenes 4a or 4c at 0.1 or 0.5 […] for 16 hours. Cells were harvested for fixation and PI staining. Cell cycle analysis and quantification of the subG0/1 population were analyzed by FACScan flow cytometry. The percentages of the apoptotic population were indicated. Shown are the representatives of two independent experiments. (b) Effect of stilbenes in HL60 cells as positive control. HL60 cells were treated with stilbenes 4a or 4c in the same medium as the positive control. (c) Colony forming assay of the stilbene-treated c-kit-positive cells. […] Cells were incubated for 14 days and the grossly visible colonies were counted. […] Mice were monitored for survival and lineage-specific donor engraftment by flow cytometry analysis of peripheral blood. […]
C57BL/6J (H2b, CD45.2) mice served as bone marrow donors and were between 6-10 weeks of age. […] Peripheral blood engraftment in recipient mice was assessed by flow cytometry analysis for CD3+ (145-2C11; BD Biosciences, San Jose, Calif.) T-cells, B220+ (RA3-6B2) B-cells, Mac1+ (M1/70.15) monocytes, and Gr1+ (8C5) granulocytes and distinguished between donor versus recipient with anti-CD45.1 (A20) and anti-CD45.2 (104) monoclonal antibodies.

[2] = system: UCI101 ovarian cancer cells; test: Western blot of signal transduction events, UCI101; type: cell-based
Experimental: All these agents are microtubule interfering agents but with different binding sites. Cells were harvested at 0, 4, 8, 16 and 36 hours after drug treatment for Western blot analysis. […] Phosphorylation of both Cdc25C and Cdc2 disappeared after 16 hours and slightly recovered at 36 hours. […] Akt phosphorylation decreased after 16 hours of treatment.
In order to understand the mechanism of resistance of stilbenes, various signal transduction pathways were investigated to examine how cells respond to stilbene treatment. UCI101 ovarian cancer cells were treated with stilbenes 4a, 4c or paclitaxel (Taxol) at 0.1 μM for 0, 4, 8, 16 and 36 hours. Cells were harvested for Western blotting. Changes in the kinases involved in cell cycle progression from G2-M transition were first determined in Cdc2, Cdc25c, and mitotic spindle check point regulator BubR1. […] 36 hours after treatment, rephosphorylation of Cdc2 was observed. […] The higher molecular weight isomer of Cdc25c, the mitotic form, increased at 16 and 36 hours. […] A similar study was then performed with other microtubule interfering agents such as combretastatin A4, 13a and vincristine for comparison. A similar trend was observed among these three microtubule interfering agents (FIG. 18).

[3] = system: Tubulin (>99% pure); test: tubulin polymerization assay (OD 340 nm); type: biochemical; details: OD340 nm; nocodazole and paclitaxel 10 μM
Experimental: FIG. 3a-d. Stilbenes inhibit tubulin polymerization. (a) Effect of stilbene 4a. Pure tubulin was incubated with various concentrations of stilbene 4a, 10 μM nocodazole, and 10 μM paclitaxel in the polymerization buffer. The OD at 340 nm was monitored every minute by SpectraMAX 250 and plotted against time. (b) Effect of stilbene 4c. (c) Comparison of same concentrations of stilbenes 4a, 4a trans, 4c and 4c trans with control. […] Tubulin was incubated with [^3H]-colchicine and various concentrations of different stilbenes for 20 min. Tubulin was then separated from the unbound [^3H]-colchicine by Microcon-30 and washed three times with PBS. The radioactivity of the tubulin was counted. […] All experiments were done in triplicates.
The tubulin polymerization assay kit was purchased from Cytoskeleton (Denver, Colo.). Tubulin (>99% pure) was mixed with general tubulin buffer (GTB, 80 mM PIPES pH 6.9, 2 mM MgCl2, 0.5 mM EGTA, and 1 mM GTP) in a 96-well plate at 37° C. Absorbance at 340 nm was measured every 1 min for 60 min by SpectraMAX 250 (Molecular Devices, Sunnyville, Calif.). Analysis of the results was performed by SoftMAX Pro version 1.2.0 from the same company.

[4] = system: SNU423 hepatocellular carcinoma cells; test: Alamar Blue cell growth inhibition, SNU423; type: cell-based; details: SNU423
Experimental: Cell growth was measured by Alamar Blue™ staining and the OD absorbance at 570 and 600 nm was determined by a microplate reader. The percentage of cell growth inhibition was calculated and compared with the control cells that were treated with 0.1% DMSO, the vehicle for the stilbene compounds.
Various cancer cell lines were grown in 96-well plates for drug sensitivity assays. Once cells achieved 50% confluence, the incubation media was changed to the same cell growth media with different concentrations of the tested compounds or vehicle alone. Cells were then incubated for 48 hours before the cell growth inhibition study. To determine the degree of cell growth inhibition, 1/10 volume of Alamar Blue™ solution was added to each well and optical density (OD) at 570 and 600 nm was determined. The percentage of growth inhibition was calculated according to the manufacturer's formula as follows: The percentage of growth is [(117216×A570)−(80586×A600)]/[(117216×A^o570)−(80586×A^o600)]×100. In this formula, A570 is the absorbance of the treated samples at 570 nm; A600 is the absorbance of the treated samples at 600 nm; A^o570 is the absorbance of the […] samples at 570 nm; and A^o600 is the absorbance of the untreated samples at 600 nm. The two constants, 117216 and 80586, are the extinction coefficients of Alamar Blue™ at 570 and 600 nm respectively. Each concentration was repeated in triplicate to minimize the error.
We first tested the cytotoxic effect of various stilbene derivatives for their in vitro efficacy of suppressing tumor cell proliferation. Cells were first plated in 96-well plates at 50% confluence and treated with 0, 0.01, 0.03, 0.1, 0.3, 1.0, 3.0, 10 μM concentrations of stilbene derivatives for 48 hours in triplicate. Alamar Blue™ reagent was added into each well at 1/10 volume and incubated for 2 hours before quantification of the absorbance at 570 and 600 nm.

[5] = system: tubulin (colchicine site); test: [3H]-colchicine competition for binding tubulin; details: 20 min, 37° C.
Experimental: FIG. 3a-d. […] (a) Effect of stilbene 4a. Pure tubulin was incubated with various concentrations of stilbene 4a, 10 μM nocodazole, and 10 μM paclitaxel in the polymerization buffer. The OD at 340 nm was monitored every minute by SpectraMAX 250 and plotted against time. (b) Effect of stilbene 4c. (c) Comparison of same concentrations of stilbenes 4a, 4a trans, 4c and 4c trans with control. […] The radioactivity of the tubulin was counted. […] All experiments were done in triplicates.
Tubulin retained in the Microcon was washed three times with PBS. The radioactivity of the final concentrated tubulin was determined by a scintillation counter.

[6] = system: c-kit positive marrow progenitor cells; test: bone marrow c-kit-positive progenitor cells: cell cycle and colony forming assay; type: cell-based
Experimental: FIG. 16. (a) Effect of stilbenes in normal bone marrow progenitor cells. c-kit-positive bone marrow mononuclear cells were isolated for incubation with stilbenes 4a or 4c at 0.1 or 0.5 […] for 16 hours. Cells were harvested for fixation and PI staining. Cell cycle analysis and quantification of the subG0/1 population were analyzed by FACScan flow cytometry. The percentages of the apoptotic population were indicated. Shown are the representatives of two independent experiments. (b) Effect of stilbenes in HL60 cells as positive control. HL60 cells were treated with stilbenes 4a or 4c in the same medium as the positive control. (c) Colony forming assay of the stilbene-treated c-kit-positive cells. A fraction of the cells in (a) were diluted and plated on methylcellulose medium at various densities. Cells were incubated for 14 days and the grossly visible colonies were counted. […] Isolated bone marrow c-kit-positive progenitor cells were incubated with DMSO or stilbenes 4a or 4c at 0.1 or 0.5 μM for 16 hours and injected into tail veins of CD45 congenic mice lethally irradiated with 1200 cGy. Mice were monitored for survival and lineage-specific donor engraftment by flow cytometry analysis of peripheral blood. The percentage of donor cells in T, B, and granulocytic series of the recipients were studied at 7 and 14 weeks after transplantation. Stilbene treated c-Kit progenitor cells had the same percentage as the DMSO treated control in all series.
Mouse bone marrow was harvested from femur and tibia of […], subjected to red blood cell lysis, and labeled with anti-c-kit (3C11; CALTAG Laboratories, Burlingame, Calif.) and streptavidin-conjugated microbeads for MACS separation (Miltenyi Biotech, Auburn, Calif.). The c-kit positive marrow progenitor cells were incubated in Iscove's Modified Eagle's Media supplemented with 30% fetal bovine serum, erythropoietin, stem cell factor and interleukin-3 with or without stilbenes 4a or 4c. The ability of long-term proliferation of the c-kit-positive cells was evaluated with colony forming assay. Cells were first treated with DMSO, stilbenes 4a or 4c for 5 h and a fraction of the cells (4000 cells) were plated in the same enriched culture media with methylcellulose for colony forming assays. The grossly visible colonies were counted after 14 days of incubation.

Compound: COc1cc(/C=C\c2ccc(OC)c(O)c2)cc(OC)c1 [4c, (Z)5-[2-(3,5-Dimethoxy-phenyl)-vinyl]-2-methoxy-phenol]
- radioprotection of lethally irradiated mice by treated progenitor cells [1]: all mice were rescued from lethal irradiation
- phosphorylation of Stat3 ([2]; 0.1 μM): transient increase in phosphorylation at 4 and 8 hours
- phosphorylation of Cdc2 at Tyr15 ([2]; 0.1 μM, 16 hours): decreased dramatically
- phosphorylation of Chk1 ([2]; 36 hours): do not cause more phosphorylation of Chk1
- effect on tubulin polymerization [3]: suppressed tubulin polymerization in a dose-dependent manner but less potent than stilbene 4a
- relative potency [4]: much more potent than the trans counterparts
- competition with [3H]-colchicine for tubulin [5]: dose-dependent suppression of tubulin-colchicine interaction
- cell cycle of marrow progenitor cells at 0.1 μM [6]: not affected
- toxicity to normal bone marrow progenitor cells versus leukemia cells [6]: much less toxic to normal bone marrow progenitor cells
- cell cycle of marrow progenitor cells at 0.5 μM ([6]; BALB/c, mouse, 16 h, 0.5 μM): small increase in subG0/1 and G2 population
